In patent US8003796B2, “Pyridone GPR119 G protein-coupled receptor agonists” (Bristol-Myers Squibb Company, priority 2007, dated 2011):
Where a name gives a salt, the structure may show the parent alone.

Legend:
[1] = tested on: male C57BL/6J mice; test: Mouse oral glucose tolerance test; assay type: in vivo; conditions: oGTT in fasted mice; oral administration at -30 min, glucose 2 g/kg at time 0; plasma glucose AUC vs vehicle; dose not given
Method: Mouse Oral Glucose Tolerance Test
24 male C57BL/6J mice (8-10 weeks old, average weight 28 g) were randomized into 4 groups (1 mouse/cage) of 6 mice per group based on fed plasma glucose and body weight. Prior to initiating the study, mice were fasted overnight and the next morning they were weighed and placed in the experimental lab. After 30 min in the environment, the mice were bled via tail tip at −30 min and immediately given their first oral administration of vehicle (0.5% Methocel, 0.1% Tween 80 in water) or compound solutions (5 ml/kg). At time 0 the mice were bled and given 50% glucose (2 g/kg) to initiate the oral glucose tolerance test (oGTT). The mice were bled 30, 60 and 120 min after the glucose load. Blood samples were drawn into potassium EDTA, placed on ice during the study and subsequently centrifuged for 10 min at 3000 rpm at 4° C. Plasma samples were diluted 11-fold for glucose analysis in the Cobas Mira System (Roche Diagnostics). Area under the curve was calculated from the plasma glucose time course data using the trapezoid rule with fasting plasma glucose as the baseline (GraphPad Prism Software). The statistical significance of the changes in the glucose AUCs resulting from the different treatments was determined by one-way ANOVA followed by Dunnett's test using the vehicle group as the control (JMP software, release 5.1.2).

[2] = biological target: T1, human GPR119 (Homo sapiens, UniProt Q8TDV5); test: Human Tet-inducible cAMP assay; assay type: cell-based; conditions: Flp-In-T-REx 293 tetracycline inducible cells expressing GPR119; cAMP by Hit Hunter cAMP kit; 1 hour at 37° C.; read-out: hGPR119 EC50
T1 construct: expressed in transfected cells; host or cells: Flp-In-T-REx 293 (tetracycline-inducible)
T1 sequence (Q8TDV5 1-335): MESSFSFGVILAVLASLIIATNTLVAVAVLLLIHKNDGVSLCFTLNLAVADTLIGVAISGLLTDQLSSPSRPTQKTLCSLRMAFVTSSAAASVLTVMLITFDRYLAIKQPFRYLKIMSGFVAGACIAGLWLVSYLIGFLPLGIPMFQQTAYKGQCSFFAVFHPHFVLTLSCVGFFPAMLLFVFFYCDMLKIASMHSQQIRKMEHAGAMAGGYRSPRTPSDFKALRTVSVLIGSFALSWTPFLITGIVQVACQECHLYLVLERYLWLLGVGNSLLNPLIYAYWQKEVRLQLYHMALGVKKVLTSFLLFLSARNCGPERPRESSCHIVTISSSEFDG
Method: The in vitro modulation of recombinant human GPR119 was determined as follows.
Human Tet-Inducible cAMP Assay
Cell lines expressing GPR119 are generated using the Flp-In-T-REx 293 tetracycline inducible gene expression system are cultured in culture medium comprising the following components: DMEM#11965, 10% FBS, 2 mM L-glutamine, 200 ug/ml Hygromycin B, and 15 ug/ml blasticidin.
For cAMP assays, cells are plated on 96 well plates (e.g., BD Falcon: REF 353948, black side, clear bottom, TC surface) at a density of about 4.5×10^4 cells per well in growth medium containing 1.0 ug/ml tetracycline (1.0 mg/ml stock). The cells are then incubated for 48 hours at 37° C.
Following the incubation, the growth medium is removed from the wells and the wells rinsed (once) with the assay buffer included in the Hit Hunter cAMP kit (100 μl/well). Following the wash, 20 μl of assay buffer is added to each well, followed by addition of 10 μl of a 3× concentration compound working solution. The solution is then mixed. The final concentration range of compound is from about 10^−5M to about 10^−11M. The reagents are then incubated at 37° C. at 5% CO2 for 1 hour.
The manufacturer's protocol may be followed for cAMP determination. The Hit Hunter cAMP kit protocol is outlined for the HIT-T15 cAMP assays described above.
Compounds of the present invention were tested in the Human Tet-inducible cAMP assay described immediately above and the results shown in Table 1 below were obtained.

Compound	EC50 [2] [nM]	Glucose Lowering (%) [1] [%]
CC(C)OC(=O)N1CCC(Oc2ccn(-c3ccc(S(C)(=O)=O)cc3)c(=O)c2)CC1 [Example 3, isopropyl 4-(1-(4-(methylsulfonyl)phenyl)-2-oxo-1,2-dihydropyridin-4-yloxy)piperidine-1-carboxylate]	–	−29
CCCc1ccc(OC(=O)N2CCC(Oc3ccn(-c4ccc(S(C)(=O)=O)cc4)c(=O)c3)CC2)cn1 [Example 153, 6-propylpyridin-3-yl 4-(1-(4-(methylsulfonyl)phenyl)-2-oxo-1,2-dihydropyridin-4-yloxy)piperidine-1-carboxylate, TFA salt]	273	–
CCCc1cnc(N2CCC(Oc3ccn(-c4ccc(C#N)c(F)c4)c(=O)c3)CC2)nc1 [Example 199, 2-fluoro-4-(2-oxo-4-(1-(5-propylpyrimidin-2-yl)piperidin-4-yloxy)pyridin-1(2H)-yl)benzonitrile]	7	–
CC(C)(C)OC(=O)N1CCC(Oc2cc(=O)n(-c3ccc(C#N)c(F)c3)cc2Cl)CC1 [Example 267, tert-butyl 4-(5-chloro-1-(4-cyano-3-fluorophenyl)-2-oxo-1,2-dihydropyridin-4-yloxy)piperidine-1-carboxylate]	4	–
COc1cccc(-n2ccc(OC3CCN(C(=O)OC(C)C)CC3)cc2=O)c1 [Example 12, isopropyl 4-(1-(3-methoxyphenyl)-2-oxo-1,2-dihydropyridin-4-yloxy)piperidine-1-carboxylate]	3490	–

Now from value to compound, other results behind:

EC50 [2] [nM]	Compound	Glucose Lowering (%) [1] [%]
5090	CC(C)OC(=O)N1CCC(Oc2ccn(-c3cncnc3)c(=O)c2)CC1 [Example 191, isopropyl 4-(2-oxo-1-(pyrimidin-5-yl)-1,2-dihydropyridin-4-yloxy)piperidine-1-carboxylate]	–
276	CCCc1cnc(N2CCC(Oc3ccn(-c4ccc(C(N)=O)cc4F)c(=O)c3)CC2)nc1 [Example 179, 3-fluoro-4-(2-oxo-4-(1-(5-propylpyrimidin-2-yl)piperidin-4-yloxy)pyridin-1(2H)-yl)benzamide, TFA salt]	–
293	CCCc1cnc(N2CCC(Oc3ccn(-c4ccc(S(C)(=O)=O)nc4C)c(=O)c3)CC2)nc1 [Example 206, 1-(2-methyl-6-(methylsulfonyl)pyridin-3-yl)-4-(1-(5-propylpyrimidin-2-yl)piperidin-4-yloxy)pyridin-2(1H)-one, TFA salt]	–
275	CS(=O)(=O)c1ccc(-n2ccc(OC3CCN(C(=O)CCc4ccccc4)CC3)cc2=O)cc1 [Example 74, 1-(4-(methylsulfonyl)phenyl)-4-(1-(3-phenylpropanoyl)piperidin-4-yloxy)pyridin-2(1H)-one]	–
274	Cc1cc(Br)ccc1OC(=O)N1CCC(Oc2ccn(-c3ccc(S(C)(=O)=O)cc3)c(=O)c2)CC1 [Example 143, 4-bromo-2-methylphenyl 4-(1-(4-(methylsulfonyl)phenyl)-2-oxo-1,2-dihydropyridin-4-yloxy)piperidine-1-carboxylate]	–
